The test system of one assay is serum calcium. Put plainly: In vivo pharmacodynamic effects: total serum calcium (arsenazo III). The conditions noted are these: rat, oral gavage. The protocol: Procedures for In Vivo Pharmacodynamic Effects
The objective of these studies was to assess the effect of compounds on stimulating PTH release and increasing calcium secretion in the rat. Male Sprague-Dawley rats (3-4 months old) were equipped with jugular vein cannulae (JVC) by surgical procedure. The rats were given the compound by oral gavage. Blood was sampled from the JVC at 15 minutes, 30 minutes, 60 minutes, 120 minutes, 240 minutes, 420 minutes, and 24 hrs post compound administration. Plasma was separated and used for a PTH ELISA assay and a calcium concentration assay. After the last blood sampling, the rats were sacrificed under anesthesia by inhalation of CO2. All procedures were conducted in compliance with the Animal Welfare Act, the Guide for the Care and Use of Laboratory Animals and the recommendations of the AVMA Panel on Euthanasia.
Rat plasma samples were used for measuring serum PTH levels: The Rat Intact PTH 1-84 ELISA kit (Immutopics Cat#60-2500) was used according to the manufacturer's instructions. Total serum calcium determination was made using a calcium arsenazo III reagent (Fisher Scientific Cat # Pointe Scientific Calcium (Arsenazo III) Reagents; Mfr. No.: C7529-500; Qty.: 500 mL. Mfr. No.: C7529-500, Part #23666172) according to the manufacturer's instructions. For these experiments, 2 μl of sample was added to 198 μl of reagent, mixed, and read at 650 nm.

For another assay, the target named is T1, human CaSR (Homo sapiens, UniProt P41180).
T1 sequence (P41180 20-1078): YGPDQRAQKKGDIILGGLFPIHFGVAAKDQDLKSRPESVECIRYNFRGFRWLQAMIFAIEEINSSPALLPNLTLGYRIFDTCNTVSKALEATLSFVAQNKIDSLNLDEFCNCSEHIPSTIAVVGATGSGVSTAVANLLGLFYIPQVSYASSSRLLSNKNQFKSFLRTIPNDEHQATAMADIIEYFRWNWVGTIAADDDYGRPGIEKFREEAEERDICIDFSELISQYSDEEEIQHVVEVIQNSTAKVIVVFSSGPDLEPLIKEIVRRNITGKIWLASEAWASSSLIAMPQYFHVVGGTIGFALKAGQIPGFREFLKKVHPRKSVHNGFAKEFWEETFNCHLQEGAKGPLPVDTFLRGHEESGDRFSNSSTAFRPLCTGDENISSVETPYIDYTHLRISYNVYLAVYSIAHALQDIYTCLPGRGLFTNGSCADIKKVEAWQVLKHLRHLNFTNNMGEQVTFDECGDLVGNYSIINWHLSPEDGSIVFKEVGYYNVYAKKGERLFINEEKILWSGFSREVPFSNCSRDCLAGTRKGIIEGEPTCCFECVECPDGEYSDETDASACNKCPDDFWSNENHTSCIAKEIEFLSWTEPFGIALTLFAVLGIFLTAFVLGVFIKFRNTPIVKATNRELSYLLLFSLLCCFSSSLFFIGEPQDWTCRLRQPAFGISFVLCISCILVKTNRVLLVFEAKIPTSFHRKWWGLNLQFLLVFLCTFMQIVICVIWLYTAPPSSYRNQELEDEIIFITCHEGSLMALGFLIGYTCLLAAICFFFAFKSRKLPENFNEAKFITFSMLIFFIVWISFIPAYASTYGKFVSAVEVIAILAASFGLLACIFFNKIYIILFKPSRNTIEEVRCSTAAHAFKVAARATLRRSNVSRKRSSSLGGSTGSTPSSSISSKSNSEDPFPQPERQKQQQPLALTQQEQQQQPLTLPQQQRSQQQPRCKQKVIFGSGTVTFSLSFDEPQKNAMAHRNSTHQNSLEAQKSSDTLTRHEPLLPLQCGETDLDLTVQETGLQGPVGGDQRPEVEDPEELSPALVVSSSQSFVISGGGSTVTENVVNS
Put plainly: CaSR FLIPR assay (calcilytic activity). It is filed as cell-based. Further details: expressed in transfected cells. A digest of the protocol: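 Calcium flux in HEK293 cells stably expressing human CaSR, loaded with Calcium 4 dye for 1 h at 37° C, read on FLIPR. Compounds in 0.5% DMSO (10-point, 3-fold series) added first, then CaCl2 at 1 mM final. Buffer: 20 mM HEPES pH 7.4, HBSS, 0.4 mM CaCl2, Mg salts.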

Where [1] appears, read: HEK293 cells stably expressing human recombinant CaSR, 1 mM CaCl2 agonist, Tables 1-24, read-out: FLIPR ASSAY IC50.
[2] abbreviates: summary table, read-out: FLIPR CaSR (IC50).

3 molecules from patent publication US20160311791A1, “NOVEL TRICYCLIC CALCIUM SENSING RECEPTOR ANTOGONISTS FOR THE TREATMENT OF OSTEOPOSOSIS” (MERCK SHARP & DOHME CORP., priority 2013, published 2016) can be followed below.

Read-outs that look alike come from different tables or passages of the source.

The term IC50 denotes the concentration that gives 50% inhibition. `CSc1ccc(CC(C)(C)NC[C@@H](O)CO[C@H](C)c2ccc(C)c3c2C2[C@H](O3)[C@H]2C(=O)O)cc1F` (stereo partly drawn) [Example 8-24]: in the assay on serum calcium (at 30 mpk), the “Maximum Increase in Calcium (mg/dl)” value is recorded as 1 (at mg/dl. The IC50 on human CaSR (setting [1]) came out at 21 nM; at human CaSR (setting [2]) it was 20 nM.
For the molecule `C[C@@H](OC[C@H](O)CNC(C)(C)Cc1ccc2ccccc2c1)c1cccc2c1[C@@H]1[C@H](O2)[C@H]1C(=O)O` [Example 5-1], in the assay on serum calcium (at 10 mpk), the “Maximum Increase in Calcium (mg/dl)” value is given as 2.3 (at mg/dl. In addition, the IC50 at human CaSR (setting [1]) and at human CaSR (setting [2]) was 9 nM each time.
Turning to `C[C@@H](OC[C@H](O)CNC(C)(C)Cc1ccc2ccccc2c1)c1cccc2c1O[C@@H]1[C@@H](C(=O)O)[C@H]21` [Example 1-1], the “Maximum Increase in Calcium (mg/dl)” value in the assay on serum calcium (at 30 mpk) was 1.5 (at mg/dl. The IC50 was found to be 26 nM on human CaSR (setting [1]) and 22 nM on human CaSR (setting [2]).
